Experimental data taken from patent publication US20230293430A1, “FORMULATIONS INCLUDING 5-[3-(3-HYDROXYPHENOXY)AZETIDIN-1-YL]-5-METHYL-2,2-DIPHENYLHEXANAMIDE” (Mylan Pharma UK Limited, priority 2020, published 2023).

Tests used:
[1] = Equivalence of TIR and FPM between products (ratio of geometric means, NGI); assay type: physicochemical
Text: Aerosolization performance information was obtained for the same batches of MGR002 and MGR003 as were used in obtaining emitted data. FIG. 3 illustrates the aerosolization performance as measured by fine particle mass (FPM) obtained from 6 devices from each MGR002 and MGR003 product. FIG. 4 and Table 37 below present the results and equivalence criteria, respectively for carboxamide hydrochloride of formula II. The results in Table 37 are listed in terms of total impactor recovery (TIR) and fine particle mass (FPM) for MGR001, MGR002 and MGR003, carboxamide compound, salmeterol and fluticasone propionate.
The mean particle mass (FPM) and mean total impactor recovery (TIR) from a next generation impactor (NGI) for each batch were equivalent, based on the fact that the upper/lower 90% confidence interval of the ratio of the geometric mean, and fell between 0.90 and 1.11. […] The fluticasone propionate and salmeterol xinafoate components of the MGR003 drug product also met the same performance targets as the MGR001 250/50 drug product.

[2] = Aerosolization performance (fine particle mass / fine particle fraction, Next Generation Impactor); assay type: physicochemical; settings: 7% w/w blend strength with 60 μm coarse lactose LH200
Procedure: The expression “respirable fraction” refers to an index of the percentage of active particles which would reach the lungs in a patient. The respirable fraction is evaluated using a suitable in vitro apparatus such as Andersen Cascade Impactor (ACI), Multi Stage Liquid Impinger (MSLI) or Next Generation Impactor (NGI), according to procedures reported in common Pharmacopoeias, in particular in the European Pharmacopeia (Eur. Ph.) 7.3, 7th Edition, which is incorporated herein by reference in its entirety.
In this example, a dry powder blend formulation of carboxamide hydrochloride and lactose monohydrate was obtained and utilized to provide the MGR002 and MGR003 products. To achieve a FPM of 128 μg of MGR002, it has been determined that a 7% w/w carboxamide hydrochloride dry powder blend was required. The formulation included coarse lactose only (LH200, D50 of 60 μm), with a 5% w/w API overage to account for losses during the blending process. […]
Aerosolization performance information was obtained for the same batches of MGR002 and MGR003 as were used in obtaining emitted data. FIG. 3 illustrates the aerosolization performance as measured by fine particle mass (FPM) obtained from 6 devices from each MGR002 and MGR003 product. […]

Compound	FPM: ratio of geometric means (MGR001 divided by MGR003) ([1]; fine particle mass)	TIR: ratio of geometric means (MGR001 divided by MGR003) ([1]; total impactor recovery)	FPM: ratio of geometric means (MGR002 divided by MGR003) ([1]; fine particle mass)	TIR: ratio of geometric means (MGR002 divided by MGR003) ([1]; total impactor recovery)	fine particle mass (FPM) achieved [2]
OCc1cc(C(O)CNCCCCCCOCCCCc2ccccc2)ccc1O (stereo not shown) [Salmeterol, salmeterol xinafoate]	1.01	0.97	–	–	–
CC(C)(CCC(C(N)=O)(c1ccccc1)c1ccccc1)N1CC(Oc2cccc(O)c2)C1.Cl [Carboxamide Hydrochloride, 5-[3-(3-Hydroxyphenoxy)azetidin-1-yl]-5-methyl-2,2-diphenylhexanamide hydrochloride]	–	–	0.95	0.97	138 µg
CCC(=O)O[C@]1(C(=O)SCF)[C@H](C)C[C@H]2[C@@H]3C[C@H](F)C4=CC(=O)C=C[C@]4(C)[C@@]3(F)[C@@H](O)C[C@@]21C [Fluticasone propionate, fluticasone propionate]	0.99	0.96	–	–	–
